From patent publication US20240417399A1, “ARYL HYDROCARBON RECEPTOR (AHR) MODULATORS AND THERAPEUTIC USES THEREOF” (GALILEO BIOSYSTEMS, INC., priority 2021, published 2024)

What was measured:
[1] = system: IL-4; assay: IL-4 release from T-cells, inflammation induced by CD2, CD3, and CD28; format: cell-based; conditions: highest test concentrations
Description: (§1) Inflammation of T-cells were induced by CD2, CD3, and CD28. […] FIG. 7B depicts concentration response curves of inhibition of IL-2 and IL-4 release and cell viability for tapiranof.

[2] = system: IL-17; assay: Imiquimod (IMQ)-induced skin inflammation: IL-17 gene expression in ear by qPCR; format: in vivo; conditions: Balb/c mice, topical on right ear, 20 μL, 50 mM once daily Day 1 to Day 9, IMQ cream
Protocol: (§2) The compounds are administered on the right ear once daily from Day 1 to Day 9 for 9 consecutive days. […] Daily Clobetasol dosage is 20 mg of 0.05% cream. One hour after administration, 15 mg imiquimod (IMQ) cream (5%, Aldaras) is applied topically on the right ear from Day 1 to Day 9 for 9 consecutive days. Ear swelling is measured (mm) as an index of inflammation on Day 0 and thereafter 30 min before dosing on Days 2, 4, 6 and 8. On Day 10, ear swelling is measured 24 hours after the last dosing. Ear edema is calculated by subtracting the thickness of Day 0 (normal control) from Day n (treated ear). Percent inhibition is calculated according to the formula: (Lc−Lt)/Lc×100, where Lc and Lt refer to increase of ear thickness in control and treated mice, respectively. Clinical scoring is done on the same days as the measurement of ear swelling. Body weight is recorded on Day 0 and thereafter daily before dosing. […] Right ears are harvested, weighed after the last ear swelling measurement, and cut into two parts, one part to be kept in 10% formalin for histopathological examination and the second part to be stored in RNAlater® solution at −20° C. for detection of IL-17 A, IL-22, GAPDH, and beta defensin with quantitative real-time PCR (qPCR). Dermal thickness is measured after taking photographs under a light microscope for the histopathological examination sections. […]

[3] = system: IL-8; assay: IL-8 release from human keratinocytes, inflammation induced by IL-17 and IFN-α; format: cell-based; conditions: human keratinocytes induced by IL-17 and IFN-α
Description: FIG. 6B depicts concentration response curves of inhibition of IL-8 release and cell viability for tapiranof.

[4] = system: CCL2; assay: CCL2 release from human keratinocytes, inflammation induced by IL-4, IL-13, IL-22 and IFN-γ; format: cell-based; conditions: human keratinocytes induced by IL-4, IL-13, IL-22 and IFN-γ
Description: (§3) Inflammation of human keratinocytes was induced by IL-4, IL-13, IL-22 and IFN-γ. […] FIG. 5B depicts concentration response curves of CCL2 release and cell viability for tapiranof.

[5] = Imiquimod (IMQ)-induced skin inflammation: body weight; format: in vivo; conditions: Balb/c mice, topical on right ear, 20 μL, 50 mM once daily Day 1 to Day 9
Protocol: as §2

[6] = system: Male Balb/c mice; assay: Imiquimod (IMQ)-induced skin inflammation: ear swelling; format: in vivo; conditions: topical on right ear, 20 μL, 50 mM once daily Day 1 to Day 9, IMQ cream
Protocol: as §2

[7] = system: IL-2; assay: IL-2 release from T-cells, inflammation induced by CD2, CD3, and CD28; format: cell-based; conditions: highest test concentrations
Description: as §1

[8] = system: human keratinocytes; assay: Cell viability of human keratinocytes, inflammation induced by IL-4, IL-13, IL-22 and IFN-γ; format: cell-based; conditions: human keratinocytes induced by IL-4, IL-13, IL-22 and IFN-γ
Description: as §3

| Compound | inhibition of IL-4 release [1] | IL-17 gene expression in the ear [2] | inhibition of IL-8 release [3] | inhibition of CCL2 release [4] | effect on body weights [5] | ear swelling compared to vehicle [6] | inhibition of IL-2 release [7] | cell viability [8] |
| --- | --- | --- | --- | --- | --- | --- | --- | --- |
| O=C(c1nc2ccccc2[nH]1)c1c[nH]c2ccccc12 [Compound 10] | inhibited release of IL-2 and IL-4 at the highest test concentrations | reduction in IL-17 gene expression | inhibited release of IL-8 | inhibited release of CCL2 | no significant effect on body weights | significant reductions in ear swelling | inhibited release of IL-2 and IL-4 at the highest test concentrations | – |
| CC(C)c1c(O)cc(/C=C/c2ccccc2)cc1O [tapiranof, reference compound] | inhibited release of IL-2 and IL-4 at the highest test concentrations | – | inhibited release of IL-8 | inhibited release of CCL2 | – | – | inhibited release of IL-2 and IL-4 at the highest test concentrations | inhibition of cell viability at higher concentrations |
